Assay results from PubChem BioAssay AID1033 (Sanford-Burnham Center for Chemical Genomics, 2008).
Active and inactive are the calls of the source. No rule for the calls is given here.

Molecular target: Chaperone protein DnaK (Escherichia coli (strain K12)) (UniProt P0A6Y8)
Experiment: binders of DnaK substrate-binding domain, biophysical, NMR, chaperone (AID 1033)
Conditions: Purified DnaK SBD, NMR ligand binding

Chaperone protein DnaK (Escherichia coli (strain K12)), sequence (P0A6Y8 whole entry, looked up, the tested form may be a part): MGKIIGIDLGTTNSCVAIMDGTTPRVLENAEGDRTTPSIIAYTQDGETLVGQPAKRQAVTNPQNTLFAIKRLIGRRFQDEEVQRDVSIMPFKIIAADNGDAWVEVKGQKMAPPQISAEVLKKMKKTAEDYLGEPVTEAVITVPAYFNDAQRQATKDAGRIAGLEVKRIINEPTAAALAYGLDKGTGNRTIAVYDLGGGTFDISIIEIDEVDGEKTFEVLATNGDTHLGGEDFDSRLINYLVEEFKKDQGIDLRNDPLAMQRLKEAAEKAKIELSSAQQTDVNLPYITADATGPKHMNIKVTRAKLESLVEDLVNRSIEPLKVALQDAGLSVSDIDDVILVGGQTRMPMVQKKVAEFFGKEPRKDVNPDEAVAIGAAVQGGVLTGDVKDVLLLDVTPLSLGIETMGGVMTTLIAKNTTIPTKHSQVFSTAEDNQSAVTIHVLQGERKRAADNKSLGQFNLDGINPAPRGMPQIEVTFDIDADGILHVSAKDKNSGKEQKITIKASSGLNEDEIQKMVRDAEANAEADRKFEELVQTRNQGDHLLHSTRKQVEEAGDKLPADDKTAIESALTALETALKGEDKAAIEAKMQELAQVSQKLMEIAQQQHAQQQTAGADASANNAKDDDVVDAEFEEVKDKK

`OCC1CCN(Cc2ccccc2)CC1` was tested, and the Kd was > 4 mM (inactive).
For `O=C(O)C1CCN(C(=O)c2cccs2)CC1`, the Kd was > 4 mM (inactive).
With `NC(CC(=O)O)C(=O)Nc1ccc(Cl)cc1` (stereo not drawn) the Kd was > 4 mM (inactive).
In the case of `O=C(O)c1cccc(CSc2ncccn2)c1`, the Kd is reported as > 4 mM (inactive).
In the case of `NC(=O)COc1cccc2cccnc12`, the Kd is reported as > 4 mM (inactive).
With `O=S(=O)(Nc1cccnc1Cl)c1ccccc1` the Kd was > 4 mM (inactive).
With `O=CN1CCN(C(=O)c2ccccc2Cl)CC1` the Kd was > 4 mM (inactive).
In the case of `c1ccc2c(c1)nnn2C1CCNCC1`, the Kd is reported as > 4 mM (inactive).
With `NC(Cc1c[nH]c2ccccc12)C(=O)O` (stereo not drawn) the Kd was > 4 mM (inactive).
With `CCCCCC/C=C\CCCCCCCc1cccc(O)c1C(=O)O` the Kd was > 4 mM (inactive).
In the case of `COc1ccccc1C(=O)NC1CCN(C)CC1`, the Kd is reported as > 4 mM (inactive).
`CCOC(=O)c1c(C)nc2cc(C)ccn12` was tested, and the Kd was > 4 mM (inactive).
`Cc1nnsc1C(=O)Nc1ccccn1` was tested, and the Kd was > 4 mM (inactive).
For `CC(=O)Nc1ccc(N(C)C(C)=O)cc1`, the Kd was > 4 mM (inactive).
For `COc1cc(OC)c2c(=O)c(O)c(-c3ccc(OC)c(OC)c3)oc2c1`, the Kd was > 4 mM (inactive).
With `CN1CCN(C(=S)NC(=O)c2ccn(C)n2)CC1` the Kd was > 4 mM (inactive).
In the case of `O=C1c2cccnc2C(=O)N1Cc1ccco1`, the Kd is reported as > 4 mM (inactive).
In the case of `C=C1C2CC[C@@]3(C)[C@H](c4ccoc4)OC(=O)C[C@]13O[C@H]1CC(O)C(C)(C)C(CC(=O)OC)[C@@]21C` (stereo partly drawn), the Kd is reported as > 4 mM (inactive).
`C=C(C)[C@@H]1CC[C@]2(CO)CC[C@]3(C)[C@H](CCC4[C@@]5(C)CC[C@H](O)C(C)(C)C5CC[C@]43C)C12` (stereo partly drawn) was tested, and the Kd was > 4 mM (inactive).
`COc1ccc(C(C)=O)c(O)c1` was tested, and the Kd was > 4 mM (inactive).
In the case of `CC(=O)Nc1cccc(-c2nnc(-c3ccccc3)o2)c1`, the Kd is reported as > 4 mM (inactive).
With `CC1(C)CC2(CCO1)NCCN1C(=O)CSC12` (stereo not drawn) the Kd was > 4 mM (inactive).
In the case of `CC(C)(O)[C@@H]1[C@H]2OC(=O)[C@@H]1[C@]1(O)C[C@H]3O[C@]34C(=O)O[C@H]2[C@]14C`, the Kd is reported as > 4 mM (inactive).
For `CNC(=S)NCCN1CCOCC1`, the Kd was > 4 mM (inactive).
In the case of `COC(=O)c1cc(-c2c[nH]c3ccccc23)n[nH]1`, the Kd is reported as > 4 mM (inactive).
`COc1cc2c(cc1OC)[C@@H]1C(=O)c3ccc4c(c3O[C@@H]1CO2)C=CC(C)(C)O4` was tested, and the Kd was > 4 mM (inactive).
`OCc1cccc2nonc12` was tested, and the Kd was > 4 mM (inactive).
`Cc1oc(-c2ccccc2)cc1C(N)=O` was tested, and the Kd was > 4 mM (inactive).
`CC(C)=CCC[C@](C)(O)C1CC=C(C)CC1` (stereo partly drawn) was tested, and the Kd was > 4 mM (inactive).
In the case of `CCCn1cnc2sc(C(N)=O)c(C)c2c1=O`, the Kd is reported as > 4 mM (inactive).
`O=C1c2ccncc2C(=O)N1CO` was tested, and the Kd was > 4 mM (inactive).
With `CC(CCC(=O)O)[C@H]1CCC2C3C[C@H](O)[C@@H]4C[C@H](O)CC[C@]4(C)C3CC[C@@]21C` (stereo partly drawn) the Kd was > 4 mM (inactive).
With `COC(=O)Nc1nnc(-c2ccncc2)s1` the Kd was > 4 mM (inactive).
With `Cn1nnc2cc(CO)ccc21` the Kd was > 4 mM (inactive).
With `Cc1ccc2cc(N)ccc2n1` the Kd was > 4 mM (inactive).
With `[O-][n+]1onc2c1CCc1c-2nn(-c2ccccc2)[n+]1[O-]` the Kd was > 4 mM (inactive).
`COc1ccc2c(c1OC)C(=O)O[C@H]2[C@H]1c2cc3c(cc2CCN1C)OCO3` was tested, and the Kd was > 4 mM (inactive).
`CC(=O)NN1C(=O)/C(=C\c2ccc(O)cc2)SC1=S` was tested, and the Kd was > 4 mM (inactive).
With `Cc1cc(C)cc(C(=O)N2CCC(C(N)=O)CC2)c1` the Kd was > 4 mM (inactive).
For `Cn1nnc2c(Cl)ncnc21`, the Kd was > 4 mM (inactive).
With `NCCC(=O)N[C@@H](Cc1cnc[nH]1)C(=O)O` the Kd was > 4 mM (inactive).
`NC(=O)c1ccccc1NC(=O)C1CCCO1` (stereo not drawn) was tested, and the Kd was > 4 mM (inactive).
`CCCCN1C(=O)C2CC/C(=N/O)CC2C1=O` (stereo not drawn) was tested, and the Kd was > 4 mM (inactive).
In the case of `NC(=O)C(=O)Nc1nc(-c2ccccc2)cs1`, the Kd is reported as > 4 mM (inactive).
For `CC12OC(=O)CC3C(C)(C)[C@H](O)C=C[C@]3(C)C1CC[C@]1(C)C2=CC(=O)O[C@H]1c1ccoc1` (stereo partly drawn), the Kd was > 4 mM (inactive).
For `Nc1cccc(NC(=O)c2ccco2)c1`, the Kd was > 4 mM (inactive).
With `c1ccc2c(c1)CN1CCCC1=N2` the Kd was > 4 mM (inactive).
`Cc1[nH]c2ccccc2c(=O)c1CO` was tested, and the Kd was > 4 mM (inactive).
`CCc1ccc2oc(-c3cc(N)cc(C)c3O)nc2c1` was tested, and the Kd was > 4 mM (inactive).
For `CC(=O)OC1CCC2(O)CC1(C)CCC1C2CC1(C)C` (stereo not drawn), the Kd was > 4 mM (inactive).
With `Cc1nn(-c2ccccc2)nc1C(N)=O` the Kd was > 4 mM (inactive).
For `Cc1cccc(C)c1N1C(=O)CCC1=O`, the Kd was > 4 mM (inactive).
With `CC(=O)O[C@H]1CC[C@@]2(C)C(C[C@@H](OC(C)=O)[C@@]3(C)C4=CC(=O)O[C@@H](c5ccoc5)[C@]4(C)CCC23)C1(C)C` (stereo partly drawn) the Kd was > 4 mM (inactive).
In the case of `NCC1COc2ccccc2O1` (stereo not drawn), the Kd is reported as > 4 mM (inactive).
For `COC(=O)c1cccc(N)c1`, the Kd was > 4 mM (inactive).
In the case of `COc1ccccc1NC(=O)CCC(=O)O`, the Kd is reported as > 4 mM (inactive).
`NC(=O)CSc1nnc(-c2cccnc2)o1` was tested, and the Kd was > 4 mM (inactive).
In the case of `O=C1NC(=S)NC(=O)C1=Cc1cccs1`, the Kd is reported as > 4 mM (inactive).
In the case of `COc1cc(C(C)=O)ccc1OC(=O)N1CCOCC1`, the Kd is reported as > 4 mM (inactive).
In the case of `Cc1nn2c3ccccc3nc2n(Cc2ccccc2)c1=O`, the Kd is reported as > 4 mM (inactive).
For `CCC(C)C(=O)O[C@H]1[C@H](O)C2C(CN3CC(C)CCC3[C@@]2(C)O)C2C[C@]34O[C@]5(O)C(OC(=O)C(C)(O)C(C)O)CC[C@@]3(C)C5C(OC(C)=O)[C@@H](OC(C)=O)C4[C@@]21O` (stereo partly drawn), the Kd was > 4 mM (inactive).
For `CC(=O)NC(O)C(=O)c1ccccc1` (stereo not drawn), the Kd was > 4 mM (inactive).
In the case of `COc1ccc(C)cc1S(N)(=O)=O`, the Kd is reported as > 4 mM (inactive).
`O=C(Nc1nncs1)C1(c2ccccc2)CCCC1` was tested, and the Kd was > 4 mM (inactive).
With `Cc1ccc(SCc2nc(-c3cccnc3)no2)cc1` the Kd was > 4 mM (inactive).
`O=c1[nH]cc(S(=O)(=O)Nc2ccccc2)c(=O)[nH]1` was tested, and the Kd was > 4 mM (inactive).
With `COc1cccc(-c2nn(-c3ccccc3)cc2CO)c1` the Kd was > 4 mM (inactive).
For `Cc1cn2c(-c3cccnc3)nnc2s1`, the Kd was > 4 mM (inactive).
In the case of `Cn1c(=O)n(CC(=O)N2CCOCC2)c2ccccc21`, the Kd is reported as > 4 mM (inactive).
`Cc1cc(NC(=O)NCCCSc2nncn2C)no1` was tested, and the Kd was > 4 mM (inactive).
For `COC(=O)c1ccc(C(=S)N2CCOCC2)cc1`, the Kd was > 4 mM (inactive).
In the case of `CNC[C@@H](O)c1ccc(O)c(O)c1`, the Kd is reported as > 4 mM (inactive).
In the case of `COc1ccc2c(c1)[nH]c1c(C)nccc12`, the Kd is reported as > 4 mM (inactive).
`Cc1nc(NC(=O)c2cccnc2)ccc1Br` was tested, and the Kd was > 4 mM (inactive).
`COc1ccc2c(c1)OCC(Cc1ccc(OC)c(O)c1)C2=O` (stereo not drawn) was tested, and the Kd was > 4 mM (inactive).
`COc1ccccc1NC(C)=O` was tested, and the Kd was > 4 mM (inactive).
`Cc1cccc(NC(=O)NC(N)=O)c1` was tested, and the Kd was > 4 mM (inactive).
For `O=C(Nc1ccc(F)cc1F)c1ccco1`, the Kd was > 4 mM (inactive).
With `CS(=O)(=O)Nc1ccc(C(=O)N2CCCCC2)cc1` the Kd was > 4 mM (inactive).
For `O=C(Nn1cnnc1)c1cccc(C(F)(F)F)c1`, the Kd was > 4 mM (inactive).
In the case of `CN(C)c1ccc(NC(=O)CC(C(=O)O)N(C)C)cc1` (stereo not drawn), the Kd is reported as > 4 mM (inactive).
In the case of `NC(=O)C1(S(=O)(=O)c2ccccc2)CC1`, the Kd is reported as > 4 mM (inactive).
With `CC(C(N)=O)N1C(=O)c2ccccc2C1=O` (stereo not drawn) the Kd was > 4 mM (inactive).
